“And” between values parts separate entries of the source, which are not always exact repeats. Equal entries are not always repeated. Inconclusive results and toxic doses are left out. How the source made its calls: active means survival T/C of 150% or more; inactive means T/C below 125% in these data.
Test system: CD2F1 mice, L1210 leukemia ip, survival T/C
Experiment: NCI In Vivo Anticancer Drug Screen. Data for tumor model L1210 Leukemia (intraperitoneal) in CD2F1 (CDF1) mice
Conditions: endpoint: mean survival time, higher = longer survival
Procedure, shortened: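 Activity against a transplanted murine tumor was judged by comparing the compound group with a vehicle group. The outcome in the treated animals was divided by that in the controls.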

[1] = dose: 100.0 mg/kg/injection, schedule: Q01DX001 (ip), vehicle: saline
[2] = dose: 200.0 mg/kg/injection, schedule: Q01DX001 (ip), vehicle: saline
[3] = dose: 100.0 mg/kg/injection, schedule: Q01DX009 (ip), vehicle: saline with Tween-80
[4] = dose: 100.0 mg/kg/injection, schedule: Q04DX003 (ip), vehicle: saline with Tween-80
[5] = dose: 200.0 mg/kg/injection, schedule: Q01DX009 (ip), vehicle: saline with Tween-80
[6] = dose: 200.0 mg/kg/injection, schedule: Q04DX003 (ip), vehicle: saline with Tween-80
[7] = dose: 400.0 mg/kg/injection, schedule: Q04DX003 (ip), vehicle: saline with Tween-80
[8] = dose: 12.5 mg/kg/injection, schedule: Q01DX009 (ip), vehicle: saline with Tween-80
[9] = dose: 25.0 mg/kg/injection, schedule: Q01DX009 (ip), vehicle: saline with Tween-80
[10] = dose: 100.0 mg/kg/injection, schedule: Q01DX001 (ip), vehicle: Klucel (hydroxypropylcellulose) (HPC)
[11] = dose: 200.0 mg/kg/injection, schedule: Q01DX001 (ip), vehicle: Klucel (hydroxypropylcellulose) (HPC)
[12] = dose: 400.0 mg/kg/injection, schedule: Q01DX001 (ip), vehicle: Klucel (hydroxypropylcellulose) (HPC)
[13] = dose: 75.0 mg/kg/injection, schedule: Q01DX001 (ip), vehicle: saline
[14] = dose: 100.0 mg/kg/injection, schedule: Q01DX001 (ip), vehicle: saline with Tween-80
[15] = dose: 200.0 mg/kg/injection, schedule: Q01DX001 (ip), vehicle: saline with Tween-80
[16] = dose: 400.0 mg/kg/injection, schedule: Q01DX001 (ip), vehicle: saline with Tween-80
[17] = dose: 50.0 mg/kg/injection, schedule: Q01DX009 (ip), vehicle: saline with Tween-80

Measured: T/C

C/C(=N\O)C1(C)CC=CCC1CO (stereo not given)
inactive: dose: 100.0 mg/kg/injection, schedule: Q01DX009 (ip), vehicle: saline sonified 102 % of control | dose: 200.0 mg/kg/injection, schedule: Q01DX009 (ip), vehicle: saline sonified 96 % of control | dose: 400.0 mg/kg/injection, schedule: Q01DX009 (ip), vehicle: saline sonified 100 % of control

CNC1(C(=O)c2ccccc2)CC2CCC1C2 (stereo not given)
inactive: [1] 95 % of control | [2] 96 % of control | dose: 400.0 mg/kg/injection, schedule: Q01DX001 (ip), vehicle: saline 98 % of control

CC1(C)C2C(Br)C3OC(=O)C(C2C(=O)O)C31 (stereo not given)
inactive: [3] 96 % of control | [4] 91 % of control | [5] 96 % of control | [6] 96 % of control | dose: 400.0 mg/kg/injection, schedule: Q01DX009 (ip), vehicle: saline with Tween-80 93 % of control | [7] 91 % of control

N#CSCc1ccc(Cl)cc1
inactive: dose: 6.25 mg/kg/injection, schedule: Q01DX009 (ip), vehicle: saline with Tween-80 98 % of control | [8] 96 % of control | [9] 106 % of control

CC(C)=CCO
inactive: dose: 100.0 mg/kg/injection, schedule: Q04DX003 (ip), vehicle: saline 105 % of control | dose: 200.0 mg/kg/injection, schedule: Q04DX003 (ip), vehicle: saline 94 % of control | dose: 400.0 mg/kg/injection, schedule: Q04DX003 (ip), vehicle: saline 94 % of control

O=C1COC(=O)N1
inactive: [4] 107 % of control | [6] 94 % of control | [7] 96 % of control

CC1C(=O)OC2C1CCC1(C)C=CC(=O)C3(C)OC213 (stereo not given)
inactive: dose: 100.0 mg/kg/injection, schedule: Q04DX002 (ip), vehicle: saline with Tween-80 108 % of control and 104 % of control | dose: 200.0 mg/kg/injection, schedule: Q04DX002 (ip), vehicle: saline with Tween-80 108 % of control and 124 % of control | dose: 400.0 mg/kg/injection, schedule: Q04DX002 (ip), vehicle: saline with Tween-80 120 % of control

CCOC(=O)Nc1cc(N)c2nc(CN(C)c3ccccc3)cnc2n1
inactive: dose: 100.0 mg/kg/injection, schedule: Q01DX001 (ip), vehicle: other 91 % of control | dose: 200.0 mg/kg/injection, schedule: Q01DX001 (ip), vehicle: other 94 % of control | dose: 400.0 mg/kg/injection, schedule: Q01DX001 (ip), vehicle: other 91 % of control

CC(=O)CC(=O)c1cccnc1
inactive: [4] 103 % of control | [6] 97 % of control | [7] 101 % of control

CCNC1=C(C)C(=O)C2=C(C1=O)C(COC(N)=O)C1(OC)C3NC3CN21 (stereo not given)
inactive: dose: 1.5 mg/kg/injection, schedule: Q01DX001 (ip), vehicle: water 98 % of control | dose: 3.0 mg/kg/injection, schedule: Q01DX001 (ip), vehicle: water 110 % of control | dose: 6.0 mg/kg/injection, schedule: Q01DX001 (ip), vehicle: water 110 % of control | dose: 12.0 mg/kg/injection, schedule: Q01DX001 (ip), vehicle: water 114 % of control

Clc1cc(Cl)c(CBr)cc1CBr
inactive: [8] 91 % of control | [6] 90 % of control

O=C1OC2C(I)C3CC1C2C3 (stereo not given)
inactive: [4] 96 % of control | [6] 96 % of control

O=S(=O)(O)c1cccc2ncccc12
inactive: [10] 113 % of control | [11] 92 % of control | [12] 95 % of control

CN(C)C(=O)c1ccc(Cl)c(Cl)c1
inactive: [3] 102 % of control | [5] 107 % of control

Cc1cccc(NC(=O)/C=C/C(=O)O)c1
inactive: [3] 94 % of control | [5] 100 % of control

CC(=O)OC12C=C(C)C(C3C(=O)OC(=O)C31)C(C)(C)C2 (stereo not given)
inactive: [1] 103 % of control | [2] 101 % of control

OCCCNCc1ccccc1
inactive: dose: 100.0 mg/kg/injection, schedule: Q01DX009 (ip), vehicle: saline 97 % of control | dose: 200.0 mg/kg/injection, schedule: Q01DX009 (ip), vehicle: saline 96 % of control | dose: 400.0 mg/kg/injection, schedule: Q01DX009 (ip), vehicle: saline 100 % of control

CCOC1=C(C#N)CC2(CC1)c1ccccc1-c1ccccc12
inactive: dose: 100.0 mg/kg/injection, schedule: Q04DX003 (ip), vehicle: Klucel (hydroxypropylcellulose) (HPC) 96 % of control | dose: 200.0 mg/kg/injection, schedule: Q04DX003 (ip), vehicle: Klucel (hydroxypropylcellulose) (HPC) 102 % of control | dose: 400.0 mg/kg/injection, schedule: Q04DX003 (ip), vehicle: Klucel (hydroxypropylcellulose) (HPC) 101 % of control

Cc1ccn2c(=O)c(CCBr)c(C)nc2c1
inactive: [13] 96 % of control

CC(O)CC1CCCC(CC(C)O)N1 (stereo not given)
inactive: dose: 5.0 mg/kg/injection, schedule: Q01DX001 (ip), vehicle: saline 103 % of control | dose: 10.0 mg/kg/injection, schedule: Q01DX001 (ip), vehicle: saline 97 % of control | dose: 20.0 mg/kg/injection, schedule: Q01DX001 (ip), vehicle: saline 103 % of control | dose: 40.0 mg/kg/injection, schedule: Q01DX001 (ip), vehicle: saline 105 % of control | [13] 98 % of control | dose: 300.0 mg/kg/injection, schedule: Q01DX001 (ip), vehicle: saline 102 % of control

NP(=O)(Oc1ccccc1)Oc1ccccc1
inactive: [9] 96 % of control | [4] 90 % of control

Cl/C(=N\Nc1ccccc1)c1ccccc1
inactive: dose: 12.5 mg/kg/injection, schedule: Q01DX009 (ip), vehicle: Klucel (hydroxypropylcellulose) (HPC) 102 % of control | dose: 25.0 mg/kg/injection, schedule: Q01DX009 (ip), vehicle: Klucel (hydroxypropylcellulose) (HPC) 98 % of control | dose: 50.0 mg/kg/injection, schedule: Q01DX009 (ip), vehicle: Klucel (hydroxypropylcellulose) (HPC) 88 % of control

C[n+]1ccc(Nc2ccc(NC(=O)c3ccc(Nc4ccnc5ccc([N+](=O)[O-])cc45)cc3[N+](=O)[O-])cc2)cc1
inactive: [14] 96 % of control | [15] 95 % of control | [16] 93 % of control

CC(=O)c1ccc(N=C2C=CC(=O)O2)cc1
inactive: [4] 102 % of control | [6] 96 % of control | [7] 96 % of control

O=C(CCl)Nc1cccc(Cl)c1
inactive: [3] 92 % of control | [4] 97 % of control | [5] 95 % of control | [6] 111 % of control | [7] 104 % of control

c1ccc(N=Nn2c3ccccc3c3ccccc32)cc1
inactive: [14] 104 % of control | [15] 102 % of control | dose: 264.0 mg/kg/injection, schedule: Q01DX001 (ip), vehicle: saline with Tween-80 104 % of control | [16] 120 % of control | dose: 600.0 mg/kg/injection, schedule: Q01DX001 (ip), vehicle: saline with Tween-80 104 % of control

CCOC(=O)C1(C(=O)OCC)C(C)CC(O)N1C(=O)c1cc2c(cc1[N+](=O)[O-])OCO2 (stereo not given)
inactive: [10] 100 % of control | [11] 100 % of control | [12] 104 % of control

CC(O)(c1ccccc1)C(CCl)N1CCCCC1 (stereo not given)
inactive: [17] 95 % of control | [3] 97 % of control | [5] 91 % of control

O=C(Nc1ccc(F)cc1)c1cccc(C(=O)Nc2ccc(F)cc2)c1
inactive: [9] 95 % of control | [17] 94 % of control | [3] 94 % of control

Cc1ccc(S(=O)(=O)N/N=C\c2cccnc2)cc1
inactive: dose: 12.5 mg/kg/injection, schedule: Q04DX003 (ip), vehicle: other 101 % of control | dose: 25.0 mg/kg/injection, schedule: Q04DX003 (ip), vehicle: other 101 % of control | dose: 50.0 mg/kg/injection, schedule: Q04DX003 (ip), vehicle: other 97 % of control | dose: 100.0 mg/kg/injection, schedule: Q04DX003 (ip), vehicle: other 101 % of control | dose: 200.0 mg/kg/injection, schedule: Q04DX003 (ip), vehicle: other 97 % of control | dose: 400.0 mg/kg/injection, schedule: Q04DX003 (ip), vehicle: other 98 % of control

O=C(NO)c1ccc(O)cc1
inactive: dose: 267.0 mg/kg/injection, schedule: Q01DX009 (ip), vehicle: saline 120 % of control

O=c1[nH]cc(CCCc2ccccc2)c(=O)[nH]1
inactive: [4] 97 % of control | [6] 99 % of control | [7] 90 % of control

Reference: PubChem BioAssay AID256 (DTP/NCI, 2004)
